Reference: patent US12077503B2, “Substituted cyclic amides and their use as herbicides” (FMC CORPORATION, priority 2015, dated 2024)

How the values were obtained:
Type in all cases: in vivo
Kochia (Kochia scoparia) [1] = test: Test A preemergence; conditions: Bassia scoparia, pre-emergence, 240 h; for pest or weed control at 125 g/ha: 125 g ai/ha, preemergence, 0 to 100 scale where 0 is no effect and 100 is complete control, read-out: Kochia plant response rating; for pest or weed control at 500 g/ha: 500 g ai/ha, Preemergence, visual injury vs untreated controls after approximately 10 d, read-out: Kochia plant response rating (0 to 100 scale where 0 is no effect and 100 is complete control)
Procedure, shortened: (§1)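 Ratings of 0 (no effect) to 100 (complete control) come from visual comparison with untreated controls roughly 10 d after treatment. Test chemicals, formulated in a non-phytotoxic solvent mixture with surfactant, were applied either as a preemergence directed soil spray on seeded soil or postemergence to one- to two-leaf plants 2 to 10 cm tall.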

[2] = system: barnyardgrass (Echinochloa crus-galli); test: Test A preemergence; conditions: Echinochloa crus-galli, pre-emergence, 240 h; for pest or weed control at 125 g/ha: 125 g ai/ha, preemergence, 0 to 100 scale where 0 is no effect and 100 is complete control, read-out: Barnyardgrass plant response rating; for pest or weed control at 500 g/ha: 500 g ai/ha, Preemergence, visual injury vs untreated controls after approximately 10 d, read-out: Barnyardgrass plant response rating (0 to 100 scale where 0 is no effect and 100 is complete control)
Procedure, shortened: as §1

[3] = system: giant foxtail (Setaria faberii); test: Test A preemergence; conditions: Setaria faberi, pre-emergence, 240 h; for pest or weed control at 125 g/ha: 125 g ai/ha, preemergence, 0 to 100 scale where 0 is no effect and 100 is complete control, read-out: Foxtail, Giant plant response rating; for pest or weed control at 500 g/ha: 500 g ai/ha, Preemergence, visual injury vs untreated controls after approximately 10 d, read-out: Foxtail, Giant plant response rating (0 to 100 scale where 0 is no effect and 100 is complete control)
Procedure, shortened: as §1

[4] = system: pigweed (Amaranthus retroflexus); test: Test A preemergence; conditions: Amaranthus retroflexus, pre-emergence, 240 h; for pest or weed control at 125 g/ha: 125 g ai/ha, preemergence, 0 to 100 scale where 0 is no effect and 100 is complete control, read-out: Pigweed plant response rating; for pest or weed control at 500 g/ha: 500 g ai/ha, Preemergence, visual injury vs untreated controls after approximately 10 d, read-out: Pigweed plant response rating (0 to 100 scale where 0 is no effect and 100 is complete control)
[5] = system: ragweed (common ragweed, Ambrosia elatior); test: Test A preemergence; conditions: Ambrosia artemisiifolia, pre-emergence, 240 h; for pest or weed control at 125 g/ha: 125 g ai/ha, preemergence, 0 to 100 scale where 0 is no effect and 100 is complete control, read-out: Ragweed plant response rating; for pest or weed control at 500 g/ha: 500 g ai/ha, Preemergence, visual injury vs untreated controls after approximately 10 d, read-out: Ragweed plant response rating (0 to 100 scale where 0 is no effect and 100 is complete control)
Procedure, shortened: as §1

[6] = system: ryegrass, Italian (Italian ryegrass, Lolium multiflorum); test: Test A preemergence; conditions: Lolium multiflorum, pre-emergence, 240 h; for pest or weed control at 125 g/ha: 125 g ai/ha, preemergence, 0 to 100 scale where 0 is no effect and 100 is complete control, read-out: Ryegrass, Italian plant response rating; for pest or weed control at 500 g/ha: 500 g ai/ha, Preemergence, visual injury vs untreated controls after approximately 10 d, read-out: Ryegrass, Italian plant response rating (0 to 100 scale where 0 is no effect and 100 is complete control)
Procedure, shortened: as §1

[7] = system: Galium (catchweed bedstraw, Galium aparine); test: Test A postemergence; conditions: Galium, post-emergence, 240 h, 125 g ai/ha, postemergence, visual injury rating after approximately 10 d; read-out: Galium plant response rating (0 to 100 scale, 0 no effect, 100 complete control)
Procedure, shortened: as §1

Kochia (Kochia scoparia) [8] = test: Test A postemergence; conditions: Bassia scoparia, post-emergence, 240 h, 125 g ai/ha, postemergence, visual injury rating after approximately 10 d; read-out: Kochia plant response rating (0 to 100 scale, 0 no effect, 100 complete control)
Procedure, shortened: as §1

[9] = system: barnyardgrass (Echinochloa crus-galli); test: Test A postemergence; conditions: Echinochloa crus-galli, post-emergence, 240 h, 125 g ai/ha, postemergence, visual injury rating after approximately 10 d; read-out: Barnyardgrass plant response rating (0 to 100 scale, 0 no effect, 100 complete control)
Procedure, shortened: as §1

[10] = system: blackgrass (Alopecurus myosuroides); test: Test A postemergence; conditions: Alopecurus myosuroides, post-emergence, 240 h, 125 g ai/ha, postemergence, visual injury rating after approximately 10 d; read-out: Blackgrass plant response rating (0 to 100 scale, 0 no effect, 100 complete control)
Procedure, shortened: as §1

corn (Zea mays) = test: Test A postemergence; conditions: Zea mays, post-emergence, 240 h, 125 g ai/ha, postemergence, visual injury rating after approximately 10 d; read-out: Corn plant response rating (0 to 100 scale, 0 no effect, 100 complete control)
Procedure, shortened: as §1

[11] = system: pigweed (Amaranthus retroflexus); test: Test A postemergence; conditions: Amaranthus retroflexus, post-emergence, 240 h, 125 g ai/ha, postemergence, visual injury rating after approximately 10 d; read-out: Pigweed plant response rating (0 to 100 scale, 0 no effect, 100 complete control)
Procedure, shortened: as §1

[12] = system: ragweed (common ragweed, Ambrosia elatior); test: Test A postemergence; conditions: Ambrosia artemisiifolia, post-emergence, 240 h, 125 g ai/ha, postemergence, visual injury rating after approximately 10 d; read-out: Ragweed plant response rating (0 to 100 scale, 0 no effect, 100 complete control)
Procedure, shortened: as §1

[13] = system: ryegrass, Italian (Italian ryegrass, Lolium multiflorum); test: Test A postemergence; conditions: Lolium multiflorum, post-emergence, 240 h, 125 g ai/ha, postemergence, visual injury rating after approximately 10 d; read-out: Ryegrass, Italian plant response rating (0 to 100 scale, 0 no effect, 100 complete control)
Procedure, shortened: as §1

[14] = system: wheat (Triticum aestivum); test: Test A postemergence; conditions: Triticum aestivum, post-emergence, 240 h, 125 g ai/ha, postemergence, visual injury rating after approximately 10 d; read-out: Wheat plant response rating (0 to 100 scale, 0 no effect, 100 complete control)
Procedure, shortened: as §1

Cc1c(F)ccc([C@H]2CNC(=O)[C@@H]2C(=O)Nc2ccccc2C(F)(F)F)c1F [Compound 831]
pest or weed control at 125 g/ha (Kochia (Kochia scoparia) [1]): 0%
pest or weed control at 500 g/ha (Kochia (Kochia scoparia) [1]): 0%
pest or weed control at 125 g/ha [2]: 50%
pest or weed control at 500 g/ha [2]: 70%
pest or weed control at 125 g/ha [3]: 90%
pest or weed control at 500 g/ha [3]: 90%
pest or weed control at 125 g/ha [4]: 20%
pest or weed control at 500 g/ha [4]: 20%
pest or weed control at 125 g/ha [5]: 0%
pest or weed control at 500 g/ha [5]: 0%
pest or weed control at 125 g/ha [6]: 30%
pest or weed control at 500 g/ha [6]: 50%
pest or weed control at 125 g/ha [7]: 20%
pest or weed control at 125 g/ha (Kochia (Kochia scoparia) [8]): 0%
pest or weed control at 125 g/ha [9]: 30%
pest or weed control at 125 g/ha [10]: 0%
plant injury at 125 g/ha (corn (Zea mays)): 0%
pest or weed control at 125 g/ha [11]: 0%
pest or weed control at 125 g/ha [12]: 0%
pest or weed control at 125 g/ha [13]: 20%
plant injury at 125 g/ha [14]: 0%

Cc1c(F)ccc([C@H]2CNC(=O)[C@@H]2C(=O)Nc2ccccc2S(C)(=O)=O)c1F [Compound 832]
pest or weed control at 125 g/ha (Kochia (Kochia scoparia) [1]): 90%
pest or weed control at 500 g/ha (Kochia (Kochia scoparia) [1]): 100%
pest or weed control at 125 g/ha [2]: 40%
pest or weed control at 500 g/ha [2]: 80%
pest or weed control at 125 g/ha [3]: 0%
pest or weed control at 500 g/ha [3]: 80%
pest or weed control at 125 g/ha [4]: 0%
pest or weed control at 500 g/ha [4]: 30%
pest or weed control at 125 g/ha [5]: 40%
pest or weed control at 500 g/ha [5]: 60%
pest or weed control at 125 g/ha [6]: 0%
pest or weed control at 500 g/ha [6]: 30%
pest or weed control at 125 g/ha [7]: 50%
pest or weed control at 125 g/ha (Kochia (Kochia scoparia) [8]): 20%
pest or weed control at 125 g/ha [9]: 70%
pest or weed control at 125 g/ha [10]: 0%
plant injury at 125 g/ha (corn (Zea mays)): 0%
pest or weed control at 125 g/ha [11]: 0%
pest or weed control at 125 g/ha [12]: 20%
pest or weed control at 125 g/ha [13]: 20%
plant injury at 125 g/ha [14]: 0%

Cc1c(F)ccc([C@H]2CN(C)C(=O)[C@@H]2C(=O)Nc2cccc(F)c2F)c1F [Compound 834]
pest or weed control at 125 g/ha (Kochia (Kochia scoparia) [1]): 80%
pest or weed control at 500 g/ha (Kochia (Kochia scoparia) [1]): 90%
pest or weed control at 125 g/ha [2]: 90%
pest or weed control at 500 g/ha [2]: 90%
pest or weed control at 125 g/ha [3]: 90%
pest or weed control at 500 g/ha [3]: 100%
pest or weed control at 125 g/ha [4]: 0%
pest or weed control at 500 g/ha [4]: 30%
pest or weed control at 125 g/ha [5]: 0%
pest or weed control at 500 g/ha [5]: 20%
pest or weed control at 125 g/ha [6]: 70%
pest or weed control at 500 g/ha [6]: 80%
pest or weed control at 125 g/ha [7]: 60%
pest or weed control at 125 g/ha (Kochia (Kochia scoparia) [8]): 40%
pest or weed control at 125 g/ha [9]: 90%
pest or weed control at 125 g/ha [10]: 60%
plant injury at 125 g/ha (corn (Zea mays)): 40%
pest or weed control at 125 g/ha [11]: 20%
pest or weed control at 125 g/ha [12]: 0%
pest or weed control at 125 g/ha [13]: 60%
plant injury at 125 g/ha [14]: 30%

Cc1c(F)ccc([C@H]2CN(C)C(=O)[C@@H]2C(=O)Nc2ccc(F)cc2F)c1F [Compound 835]
pest or weed control at 125 g/ha (Kochia (Kochia scoparia) [1]): 80%
pest or weed control at 500 g/ha (Kochia (Kochia scoparia) [1]): 90%
pest or weed control at 125 g/ha [2]: 90%
pest or weed control at 500 g/ha [2]: 100%
pest or weed control at 125 g/ha [3]: 90%
pest or weed control at 500 g/ha [3]: 100%
pest or weed control at 125 g/ha [4]: 20%
pest or weed control at 500 g/ha [4]: 40%
pest or weed control at 125 g/ha [5]: 0%
pest or weed control at 500 g/ha [5]: 0%
pest or weed control at 125 g/ha [6]: 30%
pest or weed control at 500 g/ha [6]: 70%
pest or weed control at 125 g/ha [7]: 30%
pest or weed control at 125 g/ha (Kochia (Kochia scoparia) [8]): 0%
pest or weed control at 125 g/ha [9]: 90%
pest or weed control at 125 g/ha [10]: 40%
plant injury at 125 g/ha (corn (Zea mays)): 30%
pest or weed control at 125 g/ha [11]: 20%
pest or weed control at 125 g/ha [12]: 0%
pest or weed control at 125 g/ha [13]: 50%
plant injury at 125 g/ha [14]: 0%

CSc1ccccc1NC(=O)[C@H]1C(=O)N(C)C[C@@H]1c1cc(C)cc(F)c1 [Compound 851]
pest or weed control at 125 g/ha (Kochia (Kochia scoparia) [1]): 20%
pest or weed control at 500 g/ha (Kochia (Kochia scoparia) [1]): 70%
pest or weed control at 125 g/ha [2]: 90%
pest or weed control at 500 g/ha [2]: 90%
pest or weed control at 125 g/ha [3]: 90%
pest or weed control at 500 g/ha [3]: 90%
pest or weed control at 125 g/ha [4]: 60%
pest or weed control at 500 g/ha [4]: 90%
pest or weed control at 125 g/ha [5]: 0%
pest or weed control at 500 g/ha [5]: 30%
pest or weed control at 125 g/ha [6]: 0%
pest or weed control at 500 g/ha [6]: 70%
pest or weed control at 125 g/ha [7]: 30%
pest or weed control at 125 g/ha (Kochia (Kochia scoparia) [8]): 0%
pest or weed control at 125 g/ha [9]: 90%
pest or weed control at 125 g/ha [10]: 0%
plant injury at 125 g/ha (corn (Zea mays)): 0%
pest or weed control at 125 g/ha [11]: 0%
pest or weed control at 125 g/ha [12]: 0%
pest or weed control at 125 g/ha [13]: 0%
plant injury at 125 g/ha [14]: 20%

COc1cc([C@H]2CN(C)C(=O)[C@@H]2C(=O)Nc2ccccc2F)cc(C(F)(F)F)c1 [Compound 855]
pest or weed control at 125 g/ha (Kochia (Kochia scoparia) [1]): 20%
pest or weed control at 500 g/ha (Kochia (Kochia scoparia) [1]): 30%
pest or weed control at 125 g/ha [2]: 90%
pest or weed control at 500 g/ha [2]: 100%
pest or weed control at 125 g/ha [3]: 90%
pest or weed control at 500 g/ha [3]: 90%
pest or weed control at 125 g/ha [4]: 30%
pest or weed control at 125 g/ha [5]: 0%
pest or weed control at 500 g/ha [5]: 0%
pest or weed control at 125 g/ha [6]: 0%
pest or weed control at 500 g/ha [6]: 30%
pest or weed control at 125 g/ha [7]: 0%
pest or weed control at 125 g/ha (Kochia (Kochia scoparia) [8]): 0%
pest or weed control at 125 g/ha [9]: 90%
pest or weed control at 125 g/ha [10]: 60%
plant injury at 125 g/ha (corn (Zea mays)): 70%
pest or weed control at 125 g/ha [11]: 20%
pest or weed control at 125 g/ha [12]: 0%
pest or weed control at 125 g/ha [13]: 20%
plant injury at 125 g/ha [14]: 50%
